Test results reported in ChEMBL document CHEMBL1143991, “The 2alpha-(3-hydroxypropyl) group as an active motif in vitamin D3 analogues as agonists of the mutant vitamin D receptor (Arg274Leu)” (Bioorg Med Chem, 2008).
The source made the active and inactive calls. No cut-off for these calls is given here.

Target: T1, Vitamin D3 receptor (Homo sapiens) (UniProt P11473)
T1 sequence (whole entry): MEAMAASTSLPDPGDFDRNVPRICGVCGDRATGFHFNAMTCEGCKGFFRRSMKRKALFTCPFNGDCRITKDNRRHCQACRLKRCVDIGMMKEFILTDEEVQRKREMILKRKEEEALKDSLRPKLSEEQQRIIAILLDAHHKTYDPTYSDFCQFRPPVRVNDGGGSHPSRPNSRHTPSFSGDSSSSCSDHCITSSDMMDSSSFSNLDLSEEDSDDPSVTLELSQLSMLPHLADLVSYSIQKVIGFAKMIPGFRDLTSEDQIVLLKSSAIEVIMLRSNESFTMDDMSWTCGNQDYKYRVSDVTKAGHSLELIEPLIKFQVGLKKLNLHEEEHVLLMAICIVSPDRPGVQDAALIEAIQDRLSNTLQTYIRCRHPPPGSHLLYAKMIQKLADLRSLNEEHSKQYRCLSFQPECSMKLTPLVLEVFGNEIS
Assay: Enhancement of VDR mediated transcriptional activity in human MCF7 cells
Assay type: cell-based

Structure (SMILES)	Activity
C=C1/C(=C\C=C2/CCC[C@]3(C)[C@@H]([C@H](C)CCCC(C)(C)O)CC[C@@H]23)C[C@@H](O)[C@H](CCCO)[C@H]1CO	Active
C=C1C[C@@H](CCCO)[C@H](O)C/C1=C/C=C1\CCC[C@]2(C)[C@@H]([C@H](C)CCCC(C)(C)O)CC[C@@H]12	Active
C=C1/C(=C\C=C2/CCC[C@]3(C)[C@@H]([C@H](C)CCCC(C)(C)O)CC[C@@H]23)C[C@@H](O)[C@H](CCCO)[C@@H]1CO	Active
C=C1/C(=C\C=C2/CCC[C@]3(C)[C@@H]([C@H](C)CCCC(C)(C)O)CC[C@@H]23)C[C@@H](O)[C@H](CCCO)[C@@H]1O	Active
